# Experimental data published in patent US10800816B2 (Baxalta GmbH, priority 2012, dated 2020).
# Where a SMILES comes first, the peptide text is derived from it. Bridges are numbered along the chain shown (N, C = ends). [ ]: non-standard residue; d: D form. Tle = CC(C)(C)[C@H](N)C(=O)O; hCys = N[C@@H](CCS)C(=O)O; Aib = CC(C)(N)C(=O)O
# Tests used:
# [1] = system: Tissue Factor Pathway Inhibitor (TFPI); assay: IC50 ELISA | Mean IC50 [nM]
# [2] = system: Tissue Factor Pathway Inhibitor (TFPI); assay: IC50 ELISA | Mean IC50 [nM]; remark: listed apart in the source
# Excerpt: Table printed on a drawing sheet, FIGURE 78M
# Head of the field: IC50 ELISA | Mean IC50 [nM]
# [3] = system: Tissue Factor Pathway Inhibitor (TFPI); assay: IC50 ELISA | Mean IC50 [nM]; remark: listed apart in the source
# [4] = system: Tissue Factor Pathway Inhibitor (TFPI); assay: IC50 ELISA | IC50 [nM]
# Excerpt: Table printed on a drawing sheet, FIGURE 78U
# (§1) Head of the field: IC50 ELISA | IC50 [nM]
# [5] = system: Tissue Factor Pathway Inhibitor (TFPI); assay: IC50 ELISA | IC50 [nM]; remark: listed apart in the source
# Excerpt: Table printed on a drawing sheet, FIGURE 78N
# as §1
# [6] = system: Tissue Factor Pathway Inhibitor (TFPI); assay: IC50 ELISA | Mean IC50 [nM]; remark: listed apart in the source
# [7] = system: Tissue Factor Pathway Inhibitor (TFPI); assay: IC50 ELISA | IC50 [nM]; remark: listed apart in the source
# Excerpt: Table printed on a drawing sheet, FIGURE 78S
# as §1
# [8] = 24 h
# [9] = system: FVIII-inhibited whole blood; assay: Rotation thromboelastography (ROTEM) in whole blood; design: species or system human; details: Hem A / FVIII-inhibited human whole blood
# Procedure: Continuous visco-elastic assessment of human whole blood clot formation and firmness was performed by rotation thromboelastography with whole blood preparations in the presence or absence of peptides. […] Test samples were prepared by dissolving quantities of peptides in either DMSO or HEPES buffered saline (with or without 0.1% Tween 80).
# Recordings were made using a ROTEM thromboelastography coagulation analyzer (Pentapharm, Munich, Germany) at 37° C. Briefly, blood is added into a disposable cuvette in a heated cuvette holder. A disposable pin (sensor) is fixed on the tip of a rotating axis. The axis is guided by a high precision ball bearing system and rotates back and forth. The axis is connected with a spring for the measurement of elasticity. The exact position of the axis is detected by the reflection of light on a small mirror on the axis. The loss of elasticity when the sample clots leads to a change in the rotation of the axis. The data obtained are computer analyzed and visualized in a thromboelastogram. […] An elasticity of approximately zero is observed before clot formation begins. Mirror image traces above and below the zero line indicate the effect of clot formation on the rotation of the axis.
# The analytical set-up was as follows: to 20 μL of test sample or control, 300 μL of pre-warmed (37° C.) CTI treated citrated whole blood was added, followed by 20 μL of a 1:15 dilution of TF PRP reagent containing recombinant human tissue factor (rTF, 3 pM) (TS40, Thrombinoscope BV, Maastricht, The Netherlands). Coagulation was initiated by the addition of 20 μ200 mM CaCl2 (star-TEM®, Pentapharm, Munich, Germany) and recordings were allowed to proceed for at least 120 min. The final concentration of rTF in the assay was 11 or 44 fM.
# The thromboelastographic parameters of clotting time (CT), clot formation time (CFT) and maximum clot firmness (MCF) were recorded in accordance with the manufacturer's instructions. CT is defined as the time from the start of measurement to the start of clot formation. CFT is defined as the time from the start of clot formation until an amplitude of 20 mm is reached. MCF is the maximum difference in amplitude between the two traces during the assay. The first derivative of the data of the thromboelastogram are plotted to obtain a graph of velocity (mm/s) against time (s). From this graph, the maximum velocity (maxV) is determined. The time at which the maximum velocity is obtained (maxV-t) is also determined.
# This example describes a method for assessing clot formation in whole blood using rotation thromboelastography (ROTEM). The assay was performed as described in Example 8. The analytical set-up was as follows: 300 μL of pre-warmed (37° C.) CTI treated citrated whole blood was added to a peptide sample (10, 100, 1000 nM final assay concentration) or a control, followed by addition of a 1:15 dilution of TF PRP reagent containing recombinant human tissue factor (rTF, 3 pM) (TS40, Thrombinoscope BV, Maastricht, The Netherlands). In certain experiments, exogenous full length TFPI (flTFPI) at final concentrations of 2 or 10 nM was added to simulate flTFPI plasma levels of up to 50-fold over normal. Coagulation was initiated by the addition of 20 μL 200 mM CaCl2 (star-TEM®, Pentapharm, Munich, Germany) and recordings were allowed to proceed for at least 120 min. The final concentration of rTF in the assay was 44 fM. The thromboelastographic parameters of clotting time (CT), clot formation time (CFT) and maximum clot firmness (MCF) were recorded in accordance with the manufacturer's instructions. CT is defined as the time from the start of measurement to the start of clot formation. CFT is defined as the time from the start of clot formation until an amplitude of 20 mm is reached. MCF is the maximum difference in amplitude between the two traces during the assay.
# [10] = mouse, 24 h
# [11] = system: C57Bl/6NCrl mice; assay: Nail clip bleeding study in mice; type: in vivo, mouse
# [12] = target: T1, fl-TFPI / LRP (Homo sapiens, UniProt P10646); assay: BIAcore: fl-TFPI binding to LRP in presence of peptide; details: 1 μM peptide, 10 nM fl-TFPI
# T1 sequence (P10646 29-304): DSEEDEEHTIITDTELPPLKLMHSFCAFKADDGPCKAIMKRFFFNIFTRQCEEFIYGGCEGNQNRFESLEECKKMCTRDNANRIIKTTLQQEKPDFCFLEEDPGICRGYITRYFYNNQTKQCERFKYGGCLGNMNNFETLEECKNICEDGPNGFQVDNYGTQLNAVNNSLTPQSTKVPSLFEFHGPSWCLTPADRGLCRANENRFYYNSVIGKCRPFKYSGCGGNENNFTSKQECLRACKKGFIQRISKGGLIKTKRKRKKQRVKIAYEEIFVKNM
# T1 sequence (Q07954 852-1182 partner limits assumed): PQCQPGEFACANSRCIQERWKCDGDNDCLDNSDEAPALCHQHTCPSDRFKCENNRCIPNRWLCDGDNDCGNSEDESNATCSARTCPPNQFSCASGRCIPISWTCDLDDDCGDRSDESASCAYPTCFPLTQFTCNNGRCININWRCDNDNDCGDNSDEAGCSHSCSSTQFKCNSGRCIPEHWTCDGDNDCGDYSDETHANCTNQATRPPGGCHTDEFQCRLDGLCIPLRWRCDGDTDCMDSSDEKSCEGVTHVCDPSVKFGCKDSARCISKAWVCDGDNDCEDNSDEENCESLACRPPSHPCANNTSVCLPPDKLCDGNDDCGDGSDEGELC
# [13] = system: FIX knock-out mice; assay: Tail-tip bleed model in FIX knock-out mice; type: in vivo, mouse; details: 1 mg/kg JBT2329 alone
# Procedure: JBT2329 also was tested in a FIX knock-out tail-tip bleed mouse model, which is a clinically-relevant model for hemophilia B human patients. The methodology was substantially similar to that described above with respect to the FVIII knock-out model. Instead of ADVATE, a recombinant FIX (rFIX) served as a reference. Median total blood loss in buffer-treated animals was 935 mg. Median total blood loss in animals treated with a murine anti-TFPI antibody (maTFPI) was 774 mg. Median total blood loss was reduced further when the animals received combined treatment of maTFPI and rFIX.
# [14] = system: FVIII knock-out mice; details: 1 mg/kg without ADVATE
# [15] = target: T2, fl-TFPI / ASGPR (Homo sapiens, UniProt P10646); assay: BIAcore: fl-TFPI binding to ASGPR in presence of peptide; details: 1 μM peptide
# T2 sequence (P10646 29-304): T1 sequence (P10646 29-304)
# [16] = Pharmacokinetics in C57Bl6 mice; type: in vivo, mouse; details: 1 mg/kg peptide content
# [17] = system: FVIII-deficient mice; assay: Puncture-induced hemarthrosis in FVIII-deficient mice; type: in vivo, mouse; details: 1 mg/kg i.v.
# Procedure: After each product administration, the right knee joint capsule was punctured with a 30 gauge needle to induce hemorrhage. Animals were sacrificed three days following injury, and bleeding was assessed via gross and histological methods. […] Summary bleeding scores (SBS), which include visual and histological bleeding scores, were assigned to each joint. […] The results described herein further confirm that peptides of the invention provide a prophylactic or protective effect against bleeding in an in vivo model of hemophilia A.
# [18] = system: Tissue Factor Pathway Inhibitor (TFPI); assay: IC50 ELISA | Mean IC50 [nM]; remark: listed apart in the source
# [19] = system: Tissue Factor Pathway Inhibitor (TFPI); assay: IC50 ELISA | Mean IC50 [nM]; remark: listed apart in the source
# [20] = 0.1 mg/kg i.v., first 30 minutes
# [21] = 0.1 mg/kg i.v., second 30 minute period
compound,measurement,setting,value
"CC(=O)N[C@@H](Cc1ccccc1)C(=O)N[C@@H](CCC(N)=O)C(=O)N[C@@H](CO)C(=O)N[C@@H](CCCCN)C(=O)N1CCC[C@@H]1C(=O)N[C@@H](CC(N)=O)C(=O)N[C@H](C(=O)N[C@@H](Cc1c[nH]cn1)C(=O)N[C@H](C(=O)N[C@@H](CC(=O)O)C(=O)N[C@@H]1CSSCC[C@@H](C(=O)N[C@@H](CCCNC(=N)N)C(=O)N[C@@H](CC(C)C)C(=O)NC(C)(C)C(=O)N[C@@H](C)C(=O)N[C@@H](CCCCN)C(=O)N[C@@H](CC(C)C)C(N)=O)NC(=O)[C@H](Cc2ccccc2)NC(=O)[C@H](Cc2ccc(O)cc2)NC1=O)C(C)(C)C)C(C)C [JBT00002494, Ac-FQSKpNVH-Tle-D[cYF-Hcy-]RL-Aib-AKL-NH2] (Ac-FQSK[dP]NVH[Tle]D[dC]YF[hCys]RL[Aib]AKL-NH2; disulfide 11-14)",IC50,[1],2.84 nM
Ac-FQSKpNVHVDGYFERL-Aib-AKLC(ME-400MA)-NH2 [JBT00002329],IC50,[2],20.8 nM
Ac-FQSK-nma-NVHVDGYFERL-Aib-AKL-NH2 [JBT00002280],IC50,[3],4.6 nM
Ac-FQSKpNVH-Tle-DaYF[-Hcy-RL-Aib--Hcy-]KL-NH2 [JBT00002489],IC50,[4],> 500 nM
Ac-FQSKpNVH-Nmv-DGYFERL-Aib-AKLC(NEM)-NH2 [JBT00002387],IC50,[5],> 500 nM
Ac-FQ-Ede(O)-KpNVH-Tle-DaYFERL-Aib-AKL-NH2 [JBT00002453],IC50,[6],7.9 nM
Ac-FQSKpNVH-Tle-DaYFERL-Aib-A-Opc-L-NH2 [JBT00002447],IC50,[7],> 500 nM
"Ac-FQSKpNVHVDGYFERL-Aib-AKLC(PEG)-NH2 [JBT2329] (FQSKPNVHVDGYFERLXAKLC; acetyl, D-Pro, Aib, Cys-PEG 41.5 kD, amide; MOD_RES (1)..(1): N-terminal acetylation; MOD_RES (5)..(5): D-Pro; MOD_RES (17)..(17): Xaa is 2-amino-isobutyric acid; MOD_RES (21)..(21): Cys-PEG; MOD_RES (21)..(21): C-terminal amidation)","Human Plasma Stability, 24 hour (%)",[8],67.3%
same,coagulation parameters,[9],restored prolonged coagulation parameters in Hem A blood
same,percentage of initial amount of peptide remaining in plasma,[10],≥ 60%
same,reduction of total blood loss compared to vehicle,"[11]; 0.1 mg/kg i.v., 60 minutes",~60%
same,mean blood loss,"[11]; 0.1 mg/kg i.v., 60 minutes total",34.7 µL
same,mean blood loss,[11]; [20],16.0 µL
same,reduction of blood loss compared to vehicle,[11]; [20],about 50%
same,mean blood loss,[11]; [21],18.7 µL
same,reduction of blood loss compared to vehicle,[11]; [21],about 64%
same,mean blood loss,"[11]; 1.0 mg/kg i.v., entire 60 minutes",22.8 µL
same,mean blood loss,"[11]; 1.0 mg/kg i.v., first 30 minutes",12.2 µL
same,mean blood loss,"[11]; 1.0 mg/kg i.v., second 30 minute period",10.6 µL
same,reduction of blood loss compared to vehicle,"[11]; 10 mg/kg subcutaneous, 60 minutes",approximately 58%
same,fl-TFPI interaction with LRP in presence of peptide,[12],slight decrease in fl-TFPI LRP interaction
same,effect on median total blood loss,[13],did not lead to a significant reduction in median total blood loss
same,effect on median total blood loss,[14],did not reduce median total blood loss over that observed in buffer-treated animals
same,fl-TFPI interaction with ASGPR in presence of peptide,[15],diminished the ASGPR-fl-TFPI interaction
same,HL_λ_z [h] (intravenous),[16]; intravenous,19.8 h
same,Bioavailability [%] (s.c.),[16]; s.c. AUC vs i.v. AUC,73.3%
same,protective effect on joint bleeding (summary bleeding score),[17],"significantly greater than the effect of 10 IU/kg ADVATE, but less than 100 IU/kg ADVATE"
Ac-FQSKpNVHVDGYFERL-Egz-AKL-NH2 [JBT00002302],IC50,[18],2.7 nM
Ac-FQSKpNVHVDGYFERL-Aib-AKLK(AOA-40kDa PSA)- NH2 [JBT00002430],IC50,[19],15.4 nM
